These are literature values, as cited in patent publication US11224631B2, “Ready-to-use Carfilzomib compositions” (Orbicular Pharmaceutical Technologies Pvt. Ltd., priority 2017, dated 2022).

Take `CC(C)C[C@H](NC(=O)[C@H](CCc1ccccc1)NC(=O)CN1CCOCC1)C(=O)N[C@@H](Cc1ccccc1)C(=O)N[C@@H](CC(C)C)C(=O)[C@@]1(C)CO1` [Carfilzomib]: the Aqueous solubility entry is listed as “low aqueous solubility”.
